Tests used:
[1] = target: nucleotide binding site (NBS); conditions: read-out: previously reported Kd for IBA/NBS interactions; cited from earlier work
[2] = system: CD20 negative myeloma cell lines, U266, H929, and MM.1S; experiment: CD20 antigen detection flow cytometry assay; type: cell-based; conditions: conjugate 200 nM, photocrosslinked at 1 J/cm^2; U266, H929, MM.1S
Experimental: IM9, U266, H929, and MM.1S cell lines were cultured in RPMI 1640 media containing 10% FBS, 2 mM L-glutamine, 100 U/mL penicillin, and 100 μg/mL streptomycin. […] IBA-FITC was photocrosslinked to Rituximab at the indicated UV energies. All cell lines were used at a density of 0.5×10^6 cells/mL in blocking buffer (1.5% BSA in PBS pH 7.4) and initially incubated for 30 min on ice. […] Samples were washed three times and analyzed on a Guava easyCyte 8HT flow cytometer.

Row | Molecule | Kd [1] | binding to CD20 negative cell lines [2]
1 | O=C(O)CCCc1c[nH]c2ccccc12 [IBA, indole-3-butyric acid] | 1 to 8 µM | 
2 | Rituximab-IBA-FITC conjugate |  | negligible binding

— US11116848B2, “Selective UV crosslinking of peptides and functional moieties to immunoglobulins” (University of Notre Dame du Lac, priority 2013, dated 2021)
